Article PMC12130451 (Scientific Reports, 2025)

How the values were obtained:
[1] = target: AChE (Electrophorus electricus, UniProt O42275); assay: Enzyme kinetic study; assay type: biochemical, electric eel
[2] = target: acetylcholinesterase (AChE, E.C. 3.1.1.7, Type V-S) (Electrophorus electricus, UniProt O42275); assay: AChE inhibition, modified Ellman method; assay type: biochemical, electric eel; conditions: read-out: % Inhibition at 50 µM, AChE, Mean ± SE
Sequence of acetylcholinesterase (AChE, E.C. 3.1.1.7, Type V-S) (O42275 24-633): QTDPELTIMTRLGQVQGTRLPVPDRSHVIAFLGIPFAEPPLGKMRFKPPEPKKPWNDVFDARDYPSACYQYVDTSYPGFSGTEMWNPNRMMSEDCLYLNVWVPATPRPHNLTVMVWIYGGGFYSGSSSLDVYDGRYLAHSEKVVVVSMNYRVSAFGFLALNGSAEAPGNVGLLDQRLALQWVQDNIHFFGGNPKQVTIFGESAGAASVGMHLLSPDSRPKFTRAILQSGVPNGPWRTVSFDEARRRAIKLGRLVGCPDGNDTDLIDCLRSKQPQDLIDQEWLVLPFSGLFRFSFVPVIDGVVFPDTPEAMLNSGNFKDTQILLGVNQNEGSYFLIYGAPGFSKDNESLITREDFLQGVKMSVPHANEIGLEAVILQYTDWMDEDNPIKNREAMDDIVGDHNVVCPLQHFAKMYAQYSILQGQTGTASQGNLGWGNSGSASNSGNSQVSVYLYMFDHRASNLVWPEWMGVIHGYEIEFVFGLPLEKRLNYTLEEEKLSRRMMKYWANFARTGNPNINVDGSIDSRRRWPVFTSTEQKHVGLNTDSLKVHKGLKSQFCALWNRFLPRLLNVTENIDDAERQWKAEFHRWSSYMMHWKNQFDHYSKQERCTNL

Sequence of AChE (O42275 24-633): as above

CC(C)(C)OC(=O)NC1CCCN(C(=O)/C=C/c2ccccc2Cl)C1 (stereo not shown) [5b, tert-butyl (E)-(1-(3-(2-chlorophenyl)acryloyl)piperidin-3-yl)carbamate]
Ki [1]: 10 µM | secondary inhibition constant (Kis) ([1]; AChE, 1/Vmax vs inhibitor concentration): 36.16 µM | type of inhibition ([1]; AChE, Lineweaver-Burk plot): mix-type inhibition

COc1ccc(OC)c(/C=C/C(=O)N2CCCC(NC(=O)OC(C)(C)C)C2)c1 (stereo not shown) [5o, tert-butyl (E)-(1-(3-(2,5-dimethoxyphenyl)acryloyl)piperidin-3-yl)carbamate]
inhibition at 50 µM [2]: 44.1%
